Measured values as given in ChEMBL document CHEMBL1201862, “PubChem BioAssay data set” (2004).
Blank lines part the entries; values can stand above or below the compound they belong to. Calls of active or inactive are those of the source.

Columns and labels:
[1] = target: T1, Nuclear receptor subfamily 0 group B member 1 (Homo sapiens, UniProt P51843); test: Luminescence-based cell-based high throughput dose response assay for inhibitors of the orphan nuclear receptor subfamily 0, group B, member 1 (DAX1; NR0B1). [Related pubchem assays (depositor defined):AID504766, AID504790]; type: functional
T1 sequence (P51843 whole entry): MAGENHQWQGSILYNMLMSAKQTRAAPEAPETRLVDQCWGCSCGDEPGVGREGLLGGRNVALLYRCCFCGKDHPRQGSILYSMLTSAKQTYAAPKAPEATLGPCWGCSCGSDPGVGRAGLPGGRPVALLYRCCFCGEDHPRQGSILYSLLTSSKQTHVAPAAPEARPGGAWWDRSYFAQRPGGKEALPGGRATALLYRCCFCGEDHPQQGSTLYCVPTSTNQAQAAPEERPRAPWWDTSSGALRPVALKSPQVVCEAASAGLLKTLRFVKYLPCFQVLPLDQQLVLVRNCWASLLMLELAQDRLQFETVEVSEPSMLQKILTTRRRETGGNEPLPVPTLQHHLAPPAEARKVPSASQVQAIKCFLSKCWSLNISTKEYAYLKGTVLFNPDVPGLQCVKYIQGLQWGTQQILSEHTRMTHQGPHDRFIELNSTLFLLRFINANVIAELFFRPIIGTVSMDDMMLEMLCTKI

HEK293 = test: cells; type: functional, cell-based; conditions: Homo sapiens
[2] = target: Dual specificity protein phosphatase 3 (Homo sapiens, UniProt P51452); test: VHR phosphatase inhibition, dose response, selectivity assay for STEP inhibitor project, biochemical (AID 602374); type: functional; conditions: read-out: IC50_Mean
Chain of Dual specificity protein phosphatase 3 (P51452 whole entry): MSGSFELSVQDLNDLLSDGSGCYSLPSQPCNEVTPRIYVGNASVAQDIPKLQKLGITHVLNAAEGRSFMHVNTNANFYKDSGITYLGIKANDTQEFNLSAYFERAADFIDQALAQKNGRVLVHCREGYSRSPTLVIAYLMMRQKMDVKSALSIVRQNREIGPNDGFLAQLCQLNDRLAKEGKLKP

[3] = target: Tyrosine-protein phosphatase non-receptor type 5 (Homo sapiens, UniProt P54829); test: STEP phosphatase inhibitors, confirmation, biochemical, fluorescence intensity, uHTS hits (AID 602372); type: functional; conditions: read-out: IC50_Mean
Chain of Tyrosine-protein phosphatase non-receptor type 5 (P54829 whole entry): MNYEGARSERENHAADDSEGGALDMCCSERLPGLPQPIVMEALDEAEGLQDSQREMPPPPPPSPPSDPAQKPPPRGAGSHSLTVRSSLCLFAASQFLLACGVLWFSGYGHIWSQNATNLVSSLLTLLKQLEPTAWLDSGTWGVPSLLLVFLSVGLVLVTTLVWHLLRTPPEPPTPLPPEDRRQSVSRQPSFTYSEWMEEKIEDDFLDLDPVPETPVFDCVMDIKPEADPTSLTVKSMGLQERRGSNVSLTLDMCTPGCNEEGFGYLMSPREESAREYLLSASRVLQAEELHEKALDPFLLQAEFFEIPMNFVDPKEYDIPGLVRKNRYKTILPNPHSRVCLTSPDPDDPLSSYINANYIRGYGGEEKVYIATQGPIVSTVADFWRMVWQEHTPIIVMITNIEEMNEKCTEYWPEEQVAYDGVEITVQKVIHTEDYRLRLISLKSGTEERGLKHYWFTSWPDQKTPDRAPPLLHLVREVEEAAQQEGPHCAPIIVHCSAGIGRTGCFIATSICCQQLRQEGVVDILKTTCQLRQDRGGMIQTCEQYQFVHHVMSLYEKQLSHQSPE

[4] = target: Tyrosine-protein phosphatase non-receptor type 11 (Homo sapiens, UniProt Q06124); test: SHP2 phosphatase inhibition, dose response, selectivity assay for STEP inhibitor project, biochemical (AID 602367); type: functional; conditions: read-out: IC50_Mean
[5] = target: T2, Sentrin-specific protease 8 (Homo sapiens, UniProt Q96LD8); type: functional
T2 sequence (Q96LD8 whole entry): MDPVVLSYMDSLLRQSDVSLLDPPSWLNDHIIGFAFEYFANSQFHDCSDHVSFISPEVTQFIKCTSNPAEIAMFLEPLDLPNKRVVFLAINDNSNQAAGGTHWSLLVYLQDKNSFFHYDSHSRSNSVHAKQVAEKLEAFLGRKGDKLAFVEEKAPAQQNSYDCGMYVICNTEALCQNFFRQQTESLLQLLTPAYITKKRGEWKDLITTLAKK

[6] = target: Mitochondrial peptide methionine sulfoxide reductase (Bos taurus, UniProt P54149); type: functional;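 note: absorbance read-out, biochemical high-throughput dose-response screen for MsrA inhibitors, confirmatory; recombinant bovine MsrA coupled to E. coli TrxB with NADPH and selenocystamine; potency is for inhibitors of MsrA activity on DMSO substrate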
Chain of Mitochondrial peptide methionine sulfoxide reductase (P54149 whole entry): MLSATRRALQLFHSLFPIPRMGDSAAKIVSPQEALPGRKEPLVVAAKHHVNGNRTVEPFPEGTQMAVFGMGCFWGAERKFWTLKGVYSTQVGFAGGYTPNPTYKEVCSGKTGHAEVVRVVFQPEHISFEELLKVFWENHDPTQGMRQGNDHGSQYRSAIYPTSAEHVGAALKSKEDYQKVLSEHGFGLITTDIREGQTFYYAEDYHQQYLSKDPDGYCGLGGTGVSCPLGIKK

[7] = target: T2, Sentrin-specific protease 8; type: functional; remark: listed apart in the source
INS1 = test: beta cell apoptosis inhibitors, cytokine rescue, dose response, luminescence, retest (AID 449756); type: functional, cell-based; conditions: Rattus norvegicus;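 note: cell death triggered by IL-1 beta plus TNF-alpha plus IFN-gamma mixture; protective hits raise ATP signal compared with cytokine alone wells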
[8] = target: ATP-dependent molecular chaperone HSP82 (Candida albicans (strain WO-1) (Yeast), UniProt C4YTQ8); test: loss of DOC-induced GRE-beta-galactosidase reporter signal, dose response, Hsp90 inhibitor project, S. cerevisiae, luminescence (AID 2400); type: functional, cell-based;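 note: beta-galactosidase luminescence from glucocorticoid response element reporter as proxy for Hsp90 function; inhibitor potency where signal loss means Hsp90 inhibition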
Chain of ATP-dependent molecular chaperone HSP82 (C4YTQ8 whole entry): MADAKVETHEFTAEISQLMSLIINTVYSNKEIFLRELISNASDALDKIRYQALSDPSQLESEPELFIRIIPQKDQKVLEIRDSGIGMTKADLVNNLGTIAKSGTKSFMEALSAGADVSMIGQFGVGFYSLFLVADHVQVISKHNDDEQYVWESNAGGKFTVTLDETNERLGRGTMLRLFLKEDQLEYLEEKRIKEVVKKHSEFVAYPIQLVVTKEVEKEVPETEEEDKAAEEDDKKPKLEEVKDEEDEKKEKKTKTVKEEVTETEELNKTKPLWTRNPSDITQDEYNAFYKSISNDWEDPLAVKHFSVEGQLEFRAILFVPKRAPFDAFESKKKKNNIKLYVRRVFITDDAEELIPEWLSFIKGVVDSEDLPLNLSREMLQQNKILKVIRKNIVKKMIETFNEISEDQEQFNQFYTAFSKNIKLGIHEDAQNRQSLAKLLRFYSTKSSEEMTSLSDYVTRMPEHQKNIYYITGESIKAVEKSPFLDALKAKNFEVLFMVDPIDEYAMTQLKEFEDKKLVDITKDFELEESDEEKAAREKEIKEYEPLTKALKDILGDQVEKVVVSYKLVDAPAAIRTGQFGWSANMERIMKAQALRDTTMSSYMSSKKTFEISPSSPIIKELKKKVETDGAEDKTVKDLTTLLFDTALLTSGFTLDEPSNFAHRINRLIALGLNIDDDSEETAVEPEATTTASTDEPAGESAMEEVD

[9] = C. albicans growth with fluconazole, confirmation, fluorescence, retest (AID 2467); type: functional, cell-based
[10] = target: T3, Serine/threonine-protein phosphatase (Candida dubliniensis (strain CD36 / CBS 7987 / NCPF 3949 / NRRLY-17841) (Yeast), UniProt B9W6M3); test: calcineurin pathway inhibitors in yeast reporter, dose response, S. cerevisiae, CDRE-lacZ, luminescence, secondary (AID 2388); type: functional, cell-based;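 note: yeast reporter cells carrying a calcineurin-responsive lacZ construct stimulated with calcium chloride; luminescent beta-galactosidase reporter signal in whole cells rather than isolated phosphatase activity; potency for inhibition where a drop in reporter signal means calcineurin blockade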
T3 sequence (B9W6M3 whole entry): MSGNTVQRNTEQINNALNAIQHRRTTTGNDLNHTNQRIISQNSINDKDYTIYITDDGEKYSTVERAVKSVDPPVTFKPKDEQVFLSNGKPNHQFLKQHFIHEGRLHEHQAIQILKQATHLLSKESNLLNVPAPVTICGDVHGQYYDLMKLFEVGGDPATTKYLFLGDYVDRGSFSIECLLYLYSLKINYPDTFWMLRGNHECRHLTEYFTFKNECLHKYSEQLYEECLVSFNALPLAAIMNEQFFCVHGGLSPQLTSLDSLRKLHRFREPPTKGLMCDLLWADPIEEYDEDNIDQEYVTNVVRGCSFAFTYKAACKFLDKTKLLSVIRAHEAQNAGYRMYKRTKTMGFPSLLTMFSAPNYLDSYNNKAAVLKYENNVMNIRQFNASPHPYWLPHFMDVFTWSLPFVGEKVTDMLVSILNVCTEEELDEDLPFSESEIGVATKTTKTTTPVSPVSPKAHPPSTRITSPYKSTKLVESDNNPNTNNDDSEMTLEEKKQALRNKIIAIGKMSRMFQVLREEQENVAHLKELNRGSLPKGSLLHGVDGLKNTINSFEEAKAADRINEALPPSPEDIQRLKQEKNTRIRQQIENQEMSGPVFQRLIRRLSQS

[11] = NIH-3T3 fibroblast cytotoxicity, dose response, cytotoxicity control, cell-based, fluorescence, Alamar Blue, secondary assay (AID 2327); type: functional;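 note: NIH-3T3 mouse fibroblasts cultured with fluconazole at 8 µg/mL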
[12] = target: T4, Tyrosine-protein phosphatase non-receptor type 22 (Homo sapiens, UniProt Q9Y2R2); test: LYP phosphatase inhibition for selectivity, dose response, selectivity assay for LMPTP inhibitor project, biochemical, fluorescence, LYP catalytic domain (AID 652006); type: functional; conditions: read-out: IC50_Mean
T4 sequence (Q9Y2R2 whole entry): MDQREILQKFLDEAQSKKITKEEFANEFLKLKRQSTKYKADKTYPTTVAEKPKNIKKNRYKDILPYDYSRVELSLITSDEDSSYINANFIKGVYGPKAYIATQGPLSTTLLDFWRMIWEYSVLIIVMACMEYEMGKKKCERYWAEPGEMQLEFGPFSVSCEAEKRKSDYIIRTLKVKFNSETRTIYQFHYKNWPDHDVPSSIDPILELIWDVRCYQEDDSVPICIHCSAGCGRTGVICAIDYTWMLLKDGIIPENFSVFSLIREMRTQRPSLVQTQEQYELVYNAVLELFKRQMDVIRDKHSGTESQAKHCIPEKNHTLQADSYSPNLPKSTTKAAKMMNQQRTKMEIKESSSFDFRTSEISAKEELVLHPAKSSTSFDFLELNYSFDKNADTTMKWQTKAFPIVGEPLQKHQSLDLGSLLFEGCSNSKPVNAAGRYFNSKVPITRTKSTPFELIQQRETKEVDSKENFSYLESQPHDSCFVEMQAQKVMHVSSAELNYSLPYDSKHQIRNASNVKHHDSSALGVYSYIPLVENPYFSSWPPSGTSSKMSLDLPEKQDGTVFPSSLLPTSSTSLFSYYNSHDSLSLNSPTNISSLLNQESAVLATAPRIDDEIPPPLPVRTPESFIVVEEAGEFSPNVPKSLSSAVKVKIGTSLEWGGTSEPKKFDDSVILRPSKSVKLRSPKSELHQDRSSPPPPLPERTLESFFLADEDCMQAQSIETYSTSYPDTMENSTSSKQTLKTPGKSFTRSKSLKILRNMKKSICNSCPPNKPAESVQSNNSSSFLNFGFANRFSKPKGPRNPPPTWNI

[13] = target: T5, Low molecular weight phosphotyrosine protein phosphatase (Homo sapiens, UniProt P24666); type: functional; conditions: read-out: IC50_Mean
T5 sequence (P24666 whole entry): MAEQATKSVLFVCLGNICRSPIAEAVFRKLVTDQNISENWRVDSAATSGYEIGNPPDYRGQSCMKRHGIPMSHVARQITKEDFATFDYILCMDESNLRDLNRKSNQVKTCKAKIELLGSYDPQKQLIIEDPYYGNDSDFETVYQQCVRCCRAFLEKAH

[14] = target: T5, Low molecular weight phosphotyrosine protein phosphatase; type: functional; conditions: read-out: IC50_Mean; remark: listed apart in the source
Leucine aminopeptidase = target: T6, Leucine aminopeptidase (Plasmodium falciparum 3D7, UniProt Q8IL11); test: P. falciparum M17LAP inhibitors, primary screen, biochemical, fluorogenic H-Leu-NHMec substrate, 1536-well (AID 1619); type: functional
T6 sequence (Q8IL11 whole entry): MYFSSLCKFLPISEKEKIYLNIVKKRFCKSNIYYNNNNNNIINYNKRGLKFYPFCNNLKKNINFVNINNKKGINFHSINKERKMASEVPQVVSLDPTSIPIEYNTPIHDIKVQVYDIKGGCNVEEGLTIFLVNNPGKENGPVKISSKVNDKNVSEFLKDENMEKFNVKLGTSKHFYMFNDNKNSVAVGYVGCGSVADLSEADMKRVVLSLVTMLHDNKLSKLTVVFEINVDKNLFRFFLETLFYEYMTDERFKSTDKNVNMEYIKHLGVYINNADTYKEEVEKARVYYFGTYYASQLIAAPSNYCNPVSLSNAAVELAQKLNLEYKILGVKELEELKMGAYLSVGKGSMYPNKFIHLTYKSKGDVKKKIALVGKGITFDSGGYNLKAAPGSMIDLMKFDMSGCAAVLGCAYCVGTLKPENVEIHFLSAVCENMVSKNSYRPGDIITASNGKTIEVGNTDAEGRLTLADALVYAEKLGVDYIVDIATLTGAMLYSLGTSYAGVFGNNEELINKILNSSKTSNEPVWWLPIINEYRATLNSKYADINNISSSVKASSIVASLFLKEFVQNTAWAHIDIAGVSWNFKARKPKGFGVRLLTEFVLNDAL

SMILES: COC(=O)c1sc(=S)n(Cc2ccccc2)c1C
IC50 [1]: > 67.5 µM (inactive)
IC50 (HEK293): > 67.5 µM (inactive)

IC50 [2]: 0.696 µM (active)
IC50 [3]: > 80 µM (inactive)
IC50 [4]: 1.71 µM (active)
SMILES: COCCN(C(=S)Nc1c(C)cc(C)cc1C)C(C)c1cccnc1 (stereo unspecified)

SMILES: COC(=O)C1(Cc2ccc(O)cc2)OC(=O)C(O)=C1c1ccc(O)cc1 (stereo unspecified)
IC50 [1]: > 67.5 µM (inactive)
IC50 (HEK293): 56.1 µM (inactive)

SMILES: CC(=O)NN1C(=O)c2ccc3c4c(ccc(c24)C1=O)C(=O)N(NC(C)=O)C3=O
IC50 [5]: 0.445 µM (active)
IC50 [6]: 76.8 µM (inactive)
IC50 [7]: 0.0707 µM (active)
AC50 (INS1): 0.652 µM (active)

SMILES: CCc1cc(-c2nnc(S)n2-c2ccccc2C)cs1
EC50 [8]: > 160 µM (inactive)
EC50 [9]: 0.363 µM (active)
EC50 [10]: > 180 µM (inactive)
EC50 [11]: > 150 µM (inactive)

SMILES: COCCNC(=O)C(c1ccc(Cl)cc1)N(Cc1ccco1)C(=O)CCC(=O)Nc1ccccn1 (stereo unspecified)
IC50 [1]: > 67.5 µM (inactive)
IC50 (HEK293): > 67.5 µM (inactive)

IC50 [12]: 22.7 µM (inactive)
IC50 [13]: 16.4 µM (active)
IC50 [14]: 11.6 µM (active)
SMILES: COc1ccc(Nc2nc(NCc3cccs3)nc3ccsc23)cc1OC

IC50 (Leucine aminopeptidase): 45.7 µM (active)
IC50 [6]: 114 µM (inactive)
SMILES: Cc1[nH]c(C(=O)N/N=C/c2ccc(C(=O)O)cc2)c(C)c1C(=O)N/N=C/c1ccc(C(=O)O)cc1

SMILES: Nc1ccc(C(=O)N/N=C\c2ccc(OC(=O)c3ccccc3Cl)cc2)cc1
EC50 [8]: > 160 µM (inactive)
EC50 [9]: 0.797 µM (active)
EC50 [10]: > 180 µM (inactive)
EC50 [11]: > 160 µM (inconclusive)
